In ChEMBL document CHEMBL4811281, “Identification of aryl sulfonamides as novel and potent inhibitors of NaV1.5” (Bioorg Med Chem Lett, 2021) one finds IC50 and CLint scaled data, which are given here for 26 compounds.

Data set [1] has as its target Sodium channel protein type 5 subunit alpha (Homo sapiens, UniProt Q14524). Kind of data set: Inhibition of human Nav1.5 by automated voltage clamp electrophysiology.
The nature of data set [2]: Intrinsic clearance in mouse liver microsomes. Format: ADME, Microsome. The note with it: read-out: CLH.
Data set [3] can be described thus: Intrinsic clearance in human liver microsomes. The format is ADME, Microsome. The note with it: read-out: CLH. Background: Liver microsomes are vesicles of endoplasmic reticulum, rich in cytochrome P450 enzymes.
Data set [4] in a line: Inhibition of human Nav1.5 VSD4 R1631A mutant by automated voltage clamp electrophysiology.

Chain of Sodium channel protein type 5 subunit alpha (Q14524 whole entry): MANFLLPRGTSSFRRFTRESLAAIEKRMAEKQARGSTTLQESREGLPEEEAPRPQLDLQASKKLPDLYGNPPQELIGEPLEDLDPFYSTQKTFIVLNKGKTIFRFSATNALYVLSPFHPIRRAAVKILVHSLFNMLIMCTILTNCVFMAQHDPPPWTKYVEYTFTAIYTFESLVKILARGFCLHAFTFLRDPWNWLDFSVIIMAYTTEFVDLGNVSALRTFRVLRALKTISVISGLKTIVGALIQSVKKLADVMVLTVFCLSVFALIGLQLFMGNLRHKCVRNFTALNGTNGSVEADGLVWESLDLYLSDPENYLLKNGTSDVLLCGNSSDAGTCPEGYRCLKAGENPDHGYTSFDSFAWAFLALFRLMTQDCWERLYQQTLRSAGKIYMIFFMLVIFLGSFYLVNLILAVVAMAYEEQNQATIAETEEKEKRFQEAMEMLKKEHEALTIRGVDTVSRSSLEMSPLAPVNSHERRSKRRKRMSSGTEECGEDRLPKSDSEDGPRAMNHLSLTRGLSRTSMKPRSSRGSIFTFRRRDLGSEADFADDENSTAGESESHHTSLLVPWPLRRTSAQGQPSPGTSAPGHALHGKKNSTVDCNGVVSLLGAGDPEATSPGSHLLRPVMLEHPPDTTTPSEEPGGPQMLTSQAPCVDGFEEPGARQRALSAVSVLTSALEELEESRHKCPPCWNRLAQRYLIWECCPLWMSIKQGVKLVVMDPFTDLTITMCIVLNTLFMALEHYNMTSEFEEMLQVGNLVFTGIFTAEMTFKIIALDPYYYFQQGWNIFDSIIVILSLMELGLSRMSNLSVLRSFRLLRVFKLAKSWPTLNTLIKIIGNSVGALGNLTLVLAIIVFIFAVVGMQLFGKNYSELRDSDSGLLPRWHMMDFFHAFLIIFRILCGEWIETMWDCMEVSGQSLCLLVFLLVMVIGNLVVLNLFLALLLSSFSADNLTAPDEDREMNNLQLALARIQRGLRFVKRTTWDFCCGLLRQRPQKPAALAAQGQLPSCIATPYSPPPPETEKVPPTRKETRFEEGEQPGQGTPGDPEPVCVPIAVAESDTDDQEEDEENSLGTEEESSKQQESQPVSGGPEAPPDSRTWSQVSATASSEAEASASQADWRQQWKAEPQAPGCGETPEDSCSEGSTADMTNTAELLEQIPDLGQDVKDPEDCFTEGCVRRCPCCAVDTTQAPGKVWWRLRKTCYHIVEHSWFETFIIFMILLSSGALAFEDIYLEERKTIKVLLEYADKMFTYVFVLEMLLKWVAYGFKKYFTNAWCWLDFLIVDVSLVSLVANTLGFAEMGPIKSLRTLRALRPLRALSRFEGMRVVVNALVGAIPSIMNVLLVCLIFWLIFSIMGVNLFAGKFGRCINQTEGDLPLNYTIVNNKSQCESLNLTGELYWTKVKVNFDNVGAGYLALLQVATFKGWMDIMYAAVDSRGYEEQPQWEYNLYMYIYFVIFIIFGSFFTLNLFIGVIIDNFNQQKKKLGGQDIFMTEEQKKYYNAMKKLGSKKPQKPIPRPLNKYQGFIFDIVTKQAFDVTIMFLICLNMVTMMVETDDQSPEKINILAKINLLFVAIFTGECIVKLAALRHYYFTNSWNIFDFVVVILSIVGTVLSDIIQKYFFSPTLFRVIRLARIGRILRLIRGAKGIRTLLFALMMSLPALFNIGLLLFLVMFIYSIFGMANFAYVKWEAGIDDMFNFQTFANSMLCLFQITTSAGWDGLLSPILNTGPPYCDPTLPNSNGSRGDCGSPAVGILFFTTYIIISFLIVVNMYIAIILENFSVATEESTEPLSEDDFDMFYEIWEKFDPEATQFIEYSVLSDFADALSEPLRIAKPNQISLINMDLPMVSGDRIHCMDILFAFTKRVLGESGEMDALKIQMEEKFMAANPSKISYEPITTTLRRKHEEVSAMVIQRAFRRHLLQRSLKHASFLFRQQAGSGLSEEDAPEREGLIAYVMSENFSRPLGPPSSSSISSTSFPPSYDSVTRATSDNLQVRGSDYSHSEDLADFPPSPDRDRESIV

The term IC50 denotes the concentration that inhibits the measured activity by half. Higher therefore signals lower potency. `O=S(=O)(Nc1cccc(F)n1)c1cc(F)c(O[C@H]2CCN(CC(F)(F)F)C[C@@H]2c2ccc(F)c(F)c2)c(F)c1` (stereo in doubt; (+)-6) displayed an IC50 in data set [1] of 170 nM. For the compound `O=S(=O)(Nc1cccc(F)n1)c1cc(F)c(O[C@H]2CCN(CC(F)(F)F)C[C@@H]2c2ccccc2F)cc1F` (racemic), the CLint scaled in data set [2] was found to be 71 mL/min/kg; in data set [3], 17 mL/min/kg. In addition, the IC50 in data set [1] was determined as 680 nM.

`O=S(=O)(Nc1cccc(F)n1)c1cc(F)c(O[C@H]2CCN(CC(F)(F)F)C[C@@H]2c2ccc(F)c(F)c2)c(F)c1` (racemic): the CLint scaled in data set [2] turned out to be 65 mL/min/kg; in data set [3], 15 mL/min/kg. This compound came in with an IC50 in data set [1] of 65 nM. The compound `O=S(=O)(Nc1cccc(F)n1)c1cc(F)c(OC2CCN(CC(F)(F)F)CC2c2ccc(F)c(F)c2)cc1F` (single isomer, unassigned; (+)) registered an IC50 in data set [1] of 430 nM.

For `O=S(=O)(Nc1ccccn1)c1cc(F)c(O[C@H]2CCN(CC(F)(F)F)C[C@@H]2c2ccccc2)cc1F` (racemic), in data set [1], the IC50 is 4320 nM.

`O=S(=O)(Nc1cscn1)c1cc(F)c(O[C@H]2CCN(CC(F)(F)F)C[C@@H]2c2ccc(F)c(F)c2)cc1F` (racemic): the figures for the CLint scaled in data set [2] and in data set [3] were 70 mL/min/kg and 14 mL/min/kg, respectively. The midpoint of inhibition in data set [1], the IC50, lay at 750 nM.

With `O=S(=O)(Nc1cccnn1)c1cc(F)c(O[C@H]2CCN(CC(F)(F)F)C[C@@H]2c2ccccc2)cc1F` (racemic), the midpoint of inhibition in data set [1], the IC50, lay at 25500 nM.

`N#Cc1cccc([C@H]2CN(CC(F)(F)F)CC[C@@H]2Oc2cc(F)c(S(=O)(=O)Nc3cccc(F)n3)cc2F)c1` (racemic): in data set [1], half-maximal inhibition (IC50) was put at 4580 nM. `O=S(=O)(Nc1ccc(F)cn1)c1cc(F)c(O[C@H]2CCN(CC(F)(F)F)C[C@@H]2c2ccccc2)cc1F` (racemic): in data set [1], the half-maximal inhibitory concentration (IC50) came out at 13200 nM. For `O=S(=O)(Nc1ncc(F)s1)c1cc(F)c(O[C@H]2CCN(CC(F)(F)F)C[C@@H]2c2ccccc2)cc1F` (racemic), in data set [1], the IC50 came out at 4650 nM.

For the compound `O=S(=O)(Nc1cccc(F)n1)c1cc(F)c(O[C@H]2CCN(CC(F)(F)F)C[C@@H]2c2ccc(F)c(F)c2)c(F)c1F` (racemic), the CLint scaled in data set [2] was 65 mL/min/kg; in data set [3] it was 14 mL/min/kg. For the same compound, the half-inhibitory concentration (IC50) in data set [1] was determined as 31 nM. As for `O=S(=O)(Nc1ncccc1F)c1cc(F)c(O[C@H]2CCN(CC(F)(F)F)C[C@@H]2c2ccccc2)cc1F` (racemic), in data set [1], the IC50 turned out to be 5040 nM. In turn, `O=S(=O)(Nc1cc(F)ccn1)c1cc(F)c(O[C@H]2CCN(CC(F)(F)F)C[C@@H]2c2ccccc2)cc1F` (racemic) displayed an IC50 in data set [1] of 1290 nM.

Regarding `O=S(=O)(Nc1cccc(F)n1)c1cc(F)c(O[C@H]2CCN(CC(F)(F)F)C[C@@H]2c2ccc(F)c(F)c2)cc1F` (racemic), the results for the CLint scaled in data set [2] and in data set [3] were 49 mL/min/kg and 7.5 mL/min/kg, respectively. In data set [1], this compound returned an IC50 of 260 nM. Regarding `O=S(=O)(Nc1ccncn1)c1cc(F)c(O[C@H]2CCN(CC(F)(F)F)C[C@@H]2c2ccccc2)cc1F` (racemic), the IC50 in data set [1] was > 30000 nM. In the case of `O=S(=O)(Nc1cccc(F)n1)c1cc(F)c(O[C@H]2CCN(CC(F)(F)F)C[C@@H]2c2ccc(F)cc2)cc1F` (racemic), the CLint scaled turned out to be 62 mL/min/kg in data set [2] and 11 mL/min/kg in data set [3]. Also, in data set [1], the IC50 was 610 nM. Compound `O=S(=O)(Nc1ncns1)c1cc(F)c(O[C@H]2CCN(CC(F)(F)F)C[C@@H]2c2ccccc2)cc1F` (racemic) returned an IC50 in data set [1] of 7830 nM. Compound `O=S(=O)(Nc1cccc(C(F)(F)F)n1)c1cc(F)c(O[C@H]2CCN(CC(F)(F)F)C[C@@H]2c2ccccc2)cc1F` (racemic) had an IC50 in data set [1] of 6330 nM. With `O=S(=O)(Nc1cscn1)c1cc(F)c(O[C@H]2CCN(CC(F)(F)F)C[C@@H]2c2ccccc2)cc1F` (racemic), the IC50 in data set [4] is 1170 nM; in data set [1], 1180 nM.

Compound `O=S(=O)(Nc1nncs1)c1cc(F)c(O[C@H]2CCN(CC(F)(F)F)C[C@@H]2c2ccccc2)cc1F` (racemic) returned an IC50 in data set [1] of 25100 nM. The same measure, in the same setting: the same measure for `O=S(=O)(Nc1cccc(Cl)n1)c1cc(F)c(O[C@H]2CCN(CC(F)(F)F)C[C@@H]2c2ccccc2)cc1F` (racemic): 1100 nM. As for `O=S(=O)(Nc1cccc(F)n1)c1cc(F)c(O[C@H]2CCN(CC(F)(F)F)C[C@@H]2c2cccc(F)c2)cc1F` (racemic), the CLint scaled in data set [2] stood at 53 mL/min/kg; in data set [3], 13 mL/min/kg. The same compound returned an IC50 in data set [1] of 460 nM. On to `O=S(=O)(Nc1cccc(F)n1)c1cc(F)c(O[C@H]2CCN(CC(F)(F)F)C[C@@H]2c2ccc(F)cc2F)cc1F` (racemic), for which the values for the CLint scaled in data set [2] and in data set [3] were 49 mL/min/kg and 13 mL/min/kg, respectively. Besides, in data set [1], the IC50 stood at 470 nM. Consider `O=S(=O)(Nc1ncccn1)c1cc(F)c(O[C@H]2CCN(CC(F)(F)F)C[C@@H]2c2ccccc2)cc1F` (racemic), for which, in data set [1], half-maximal inhibition (IC50) required 7140 nM. The same measure, in the same setting: the same measure for `CS(=O)(=O)c1cccc([C@H]2CN(CC(F)(F)F)CC[C@@H]2Oc2cc(F)c(S(=O)(=O)Nc3cccc(F)n3)cc2F)c1` (racemic): > 30000 nM. Take `O=S(=O)(Nc1cccc(F)n1)c1cnc(O[C@H]2CCN(CC(F)(F)F)C[C@@H]2c2ccc(F)c(F)c2)c(F)c1` (racemic): the CLint scaled in data set [2] stood at 63 mL/min/kg; in data set [3] it was 8.4 mL/min/kg. For the same compound, the IC50 in data set [1] amounted to 1550 nM.
